Assay results reported in EP2108954A1, “A test system for detecting intracellular cyclic nucleotide level and methods and uses thereof” (Max-Planck-Gesellschaft zur Förderung der Wissenschaften …, priority 2008, dated 2009).
“Also recorded” adds a separate entry of the source.

Assays:
[1] = tested on: hKCNQ4; assay: Gq coupling test: KCNQ4 current in HEK293 cells coexpressing Or22a, Or83b and hKCNQ4; type: cell-based, human; conditions: increasing Etb concentrations; +40 mV
Method: (§1) HEK293 cells were cultured as described by Wicher and colleagues (Wicher et al., J. Biol. Chem. 281, 3227-36 (2006)). In brief, HEK293 cells were cultured at a density of ∼2*10^4 per 35-mm dish and transfected with 1 µg pcDNA3-DOR22a-GFP and 1 µg pcDNA3-DOR83b-GFP (Neuhaus, et al., Nat. Neurosci. 8, 15-17 (2005); DNAs were a generous gift of Dr. E. Neuhaus and Dr. H. Hatt) using Roti-Fect transfection kit (Roth, Karlsruhe, Germany). In some experiments we transfected cells with pcDNA3-DOR22a-GFP or pcDNA3-DOR83b-GFP alone. We also examined the properties of DOR47a, which was cloned, using standard molecular biology methods into a pcDNA3.1(-) expression vector. To test for putative G-protein coupling, cells were transfected with the respective OR-DNA together with 1.5 µg hHCN2/pcDNA3 (provided by M. Biel, Munich, Germany), with 1 µg hKCNQ4/pcDNA3.1 or with 1 µg hCNGA2/pCMV6-XL4 (Origene, Rockville, MD, USA).
(§2) Ion currents in HEK293 cells were measured with the patch-clamp technology as described (Wicher et al, J. Biol. Chem. 281, 3227-36 (2006)). In brief, ion currents in HEK293 cells were measured at room temperature using whole-cell patch-clamp with appropriate compensation of series resistance and of capacitive currents. Additional experiments were performed in the outside-out configuration. […]

[2] = target: T1, Or22a (Drosophila melanogaster, UniProt P81909); assay: Whole-cell patch-clamp of HEK293 cells expressing Or22a alone; type: cell-based; conditions: HEK293 cells transfected with Or22a alone, -60 mV, n = 6
T1 construct: expressed in transfected cells; host or cells: HEK293
T1 sequence (P81909 1-397): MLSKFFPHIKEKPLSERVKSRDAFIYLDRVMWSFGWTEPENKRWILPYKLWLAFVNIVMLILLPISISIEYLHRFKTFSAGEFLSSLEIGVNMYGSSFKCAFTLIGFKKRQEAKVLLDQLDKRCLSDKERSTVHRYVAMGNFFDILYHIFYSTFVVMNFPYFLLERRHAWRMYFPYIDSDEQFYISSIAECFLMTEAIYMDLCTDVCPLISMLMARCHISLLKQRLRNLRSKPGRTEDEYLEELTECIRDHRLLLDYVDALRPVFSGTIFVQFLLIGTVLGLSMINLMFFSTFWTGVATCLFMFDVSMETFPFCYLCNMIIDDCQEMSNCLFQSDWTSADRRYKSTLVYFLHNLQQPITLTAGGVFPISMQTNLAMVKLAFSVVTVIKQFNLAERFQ
Method: as §1, §2

[3] = target: T2, Or22a and Or83b (Drosophila melanogaster, UniProt P81909+Q9VNB5); assay: Whole-cell patch-clamp of currents in HEK293 cells coexpressing Or22a and Or83b; type: cell-based; conditions: 500 µM GDP-β-S in the pipette; n = 11
T2 construct: expressed in transfected cells; host or cells: HEK293
T2 sequence (P81909 1-397): T1 sequence (P81909 1-397)
T2 sequence (Q9VNB5 1-486): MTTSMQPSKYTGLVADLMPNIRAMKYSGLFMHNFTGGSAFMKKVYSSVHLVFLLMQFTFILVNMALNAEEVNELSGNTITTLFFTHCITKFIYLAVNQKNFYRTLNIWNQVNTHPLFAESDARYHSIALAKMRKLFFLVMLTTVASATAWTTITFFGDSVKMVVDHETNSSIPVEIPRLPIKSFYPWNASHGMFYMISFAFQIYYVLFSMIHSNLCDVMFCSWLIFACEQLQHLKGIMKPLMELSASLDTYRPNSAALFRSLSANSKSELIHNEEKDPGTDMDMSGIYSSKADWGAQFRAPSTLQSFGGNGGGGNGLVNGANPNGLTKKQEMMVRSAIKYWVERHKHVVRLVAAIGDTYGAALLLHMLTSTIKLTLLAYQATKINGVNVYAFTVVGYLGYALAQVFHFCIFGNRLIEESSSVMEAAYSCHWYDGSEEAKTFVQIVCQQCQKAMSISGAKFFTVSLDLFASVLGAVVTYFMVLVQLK

Structure (SMILES): CCCC(=O)OCC [Etb, ethyl butyrate]
- effect on KCNQ4 current [1]: remains unaffected; also recorded: had no effect
- inward current upon short Etb application [2]: no current was observed
- Hill coefficient of Etb-induced currents [3]: 1.1
